Laboratory results from US20220305051A1 (priority 2019, published 2022).

Assays:
[1] = system: C57bl/6 mice exposed to Cl2, Br2 or COCl2; conditions: mouse, in vivo
[2] = system: tongue and lung microbiome; parameters: species or system mice; conditions: mouse, in vivo
[3] = system: oral NR activity; parameters: species or system mice; conditions: mouse, in vivo
[4] = parameters: species or system mice; conditions: mouse, in vivo
[5] = mouse, in vivo
[6] = system: P. Aeruginosa; parameters: species or system mice; conditions: mouse, in vivo
[7] = system: C57bl/6 mice exposed to Br2; conditions: mouse, in vivo
[8] = system: C57bl/6 mice exposed to Br2; conditions: mouse, in vivo; remark: listed apart in the source
[9] = system: oral NR activity; parameters: species or system mice; conditions: mouse, in vivo; remark: listed apart in the source

[H]/N=C(\N/C(=N/[H])NCCCCCCNC(=N)NC(=N)Nc1ccc(Cl)cc1)Nc1ccc(Cl)cc1 [chlorhexidine]
Increase in severity of Br2 and COCl2 lung injury [1]: 1.5-2.5 fold
Increase in severity of Cl2 lung injury [1]: close to significant effects
Lung injury, chlorhexidine alone [1]: no effect on lung injury
Decrease in abundance of 7 bacteria on the tongue [2]: > 50%
Decrease of the one altered bacterial species in the lung microbiome [2]: ~30%
Inhibition of NR activity [3]: ~70%
Decrease of plasma nitrite [4]: 50%

O=[N+]([O-])O [nitrate]
Plasma nitrite and cGMP [5]: will temporally increase plasma nitrite and cGMP
Plasma nitrite levels [5]: increase

O=NO [nitrite, sodium nitrite]
Protection against ALI and P. aeruginosa infection [6]: protects against ALI and P. aeruginosa infection
Susceptibility to P. aeruginosa infection (bacterial burden in lung homogenates) [6]: decreases susceptibility to P. aeruginosa infection
Decrease of BAL neutrophil [7]: 50%
Survival over 10 days (Kaplan Meier) [8]: improved survival early

bromine [Br2]
Bacterial number (CFU) [9]: not different
NR activity normalized per bacterial number [9]: significantly inhibited

B1: hemopexin: a heme-scavenger; scavenges free heme (protein, UniProt P02790 24-462, looked up)
Hemopexin: TPLPPTSAHGNVAEGETKPDPDVTERCSDGWSFDATTLDDNGTMLFFKGEFVWKSHKWDRELISERWKNFPSPVDAAFRQGHNSVFLIKGDKVWVYPPEKKEKGYPKLLQDEFPGIPSPLDAAVECHRGECQAEGVLFFQGDREWFWDLATGTMKERSWPAVGNCSSALRWLGRYYCFQGNQFLRFDPVRGEVPPRYPRDVRDYFMPCPGRGHGHRNGTGHGNSTHHGPEYMRCSPHLVLSALTSDNHGATYAFSGTHYWRLDTSRDGWHSWPIAHQWPQGPSAVDAAFSWEEKLYLVQGTQVYVFLTKGGYTLVSGYPKRLEKEVGTPHGIILDSVDAAFICPGSSRLHIMAGRRLWWLDLKSGAQATWTELPWPHEKVDGALCMEKSLGPNSCSANGPGLYLIHGPNLYCYSDVEKLNAAKALPQPQNVTSLLGCTH
Protection against ALI and P. aeruginosa infection [6]: protects against ALI and P. aeruginosa infection
Survival over 10 days (Kaplan Meier) [8]: improved survival
